Reference: ChEMBL document CHEMBL4311981, “Synthesis, anticancer activity, and molecular modeling of 1,4-naphthoquinones that inhibit MKK7 and Cdc25” (Eur J Med Chem, 2019)
The source made the active and inactive calls. The calls are words filed in the database; no cut-off is given here.

Key:
[1] = target: T1, Neutrophil elastase (Homo sapiens) (UniProt P08246); assay: Inhibition of recombinant HNE (unknown origin) at <50 uM using N-methylsuccinyl-Ala-Ala-Pro-Val-7-amino-4-methylcoumarin, as a substrate measured every 30 sec for 10 mins by fluorometric assay
T1 sequence (whole entry): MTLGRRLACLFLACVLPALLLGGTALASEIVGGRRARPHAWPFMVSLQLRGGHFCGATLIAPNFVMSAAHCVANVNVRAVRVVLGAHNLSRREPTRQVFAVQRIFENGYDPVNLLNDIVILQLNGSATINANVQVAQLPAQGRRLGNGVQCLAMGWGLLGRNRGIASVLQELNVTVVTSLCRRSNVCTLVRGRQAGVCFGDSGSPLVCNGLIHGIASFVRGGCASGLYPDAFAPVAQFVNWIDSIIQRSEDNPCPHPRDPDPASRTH

LS174T [2] = assay: Cytotoxicity against human LS174T cells assessed as reduction in cell viability at <50 uM incubated for 24 hrs by CellTiter-Glo luminescent cell viability assay; format: functional, cell-based
HL-60 [3] = assay: Cytotoxicity against human HL60 cells assessed as reduction in cell viability at <50 uM incubated for 24 hrs by CellTiter-Glo luminescent cell viability assay; format: functional, cell-based
Jurkat [4] = assay: Cytotoxicity against human Jurkat cells assessed as reduction in cell viability at <50 uM incubated for 24 hrs by CellTiter-Glo luminescent cell viability assay; format: functional, cell-based
THP-1 [5] = assay: Cytotoxicity against human THP1 cells assessed as reduction in cell viability at <50 uM incubated for 24 hrs by CellTiter-Glo luminescent cell viability assay; format: functional, cell-based
A549 [6] = assay: Cytotoxicity against human A549 cells assessed as reduction in cell viability at <50 uM incubated for 24 hrs by CellTiter-Glo luminescent cell viability assay; format: functional, cell-based
[7] = target: T2, M-phase inducer phosphatase 1 (Homo sapiens, UniProt P30304)
T2 sequence (P30304 whole entry): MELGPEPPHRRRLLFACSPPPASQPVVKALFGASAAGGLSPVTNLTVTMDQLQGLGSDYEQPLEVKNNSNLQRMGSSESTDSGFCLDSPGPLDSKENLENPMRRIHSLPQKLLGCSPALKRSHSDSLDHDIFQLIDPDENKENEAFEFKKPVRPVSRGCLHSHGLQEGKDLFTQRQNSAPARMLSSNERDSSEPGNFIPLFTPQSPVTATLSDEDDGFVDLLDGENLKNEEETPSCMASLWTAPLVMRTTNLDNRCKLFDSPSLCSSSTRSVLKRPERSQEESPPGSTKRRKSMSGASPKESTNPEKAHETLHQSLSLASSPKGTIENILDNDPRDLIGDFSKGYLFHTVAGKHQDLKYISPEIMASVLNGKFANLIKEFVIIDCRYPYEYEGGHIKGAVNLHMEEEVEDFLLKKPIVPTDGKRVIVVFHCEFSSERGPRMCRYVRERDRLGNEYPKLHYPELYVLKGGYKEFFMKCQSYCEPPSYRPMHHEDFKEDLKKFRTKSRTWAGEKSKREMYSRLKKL
Description: Inhibition of recombinant Cdc25A (unknown origin) using OMFP as substrate measured every 30 sec for 10 mins by fluorometric assay

U-937 [8] = assay: Cytotoxicity against human U937 cells assessed as reduction in cell viability at <50 uM incubated for 24 hrs by CellTiter-Glo luminescent cell viability assay; format: functional, cell-based
MCF7 [9] = assay: Cytotoxicity against human MCF7 cells assessed as reduction in cell viability at <50 uM incubated for 24 hrs by CellTiter-Glo luminescent cell viability assay; format: functional, cell-based
[10] = target: T3, M-phase inducer phosphatase 2 (Homo sapiens, UniProt P30305)
T3 sequence (P30305 whole entry): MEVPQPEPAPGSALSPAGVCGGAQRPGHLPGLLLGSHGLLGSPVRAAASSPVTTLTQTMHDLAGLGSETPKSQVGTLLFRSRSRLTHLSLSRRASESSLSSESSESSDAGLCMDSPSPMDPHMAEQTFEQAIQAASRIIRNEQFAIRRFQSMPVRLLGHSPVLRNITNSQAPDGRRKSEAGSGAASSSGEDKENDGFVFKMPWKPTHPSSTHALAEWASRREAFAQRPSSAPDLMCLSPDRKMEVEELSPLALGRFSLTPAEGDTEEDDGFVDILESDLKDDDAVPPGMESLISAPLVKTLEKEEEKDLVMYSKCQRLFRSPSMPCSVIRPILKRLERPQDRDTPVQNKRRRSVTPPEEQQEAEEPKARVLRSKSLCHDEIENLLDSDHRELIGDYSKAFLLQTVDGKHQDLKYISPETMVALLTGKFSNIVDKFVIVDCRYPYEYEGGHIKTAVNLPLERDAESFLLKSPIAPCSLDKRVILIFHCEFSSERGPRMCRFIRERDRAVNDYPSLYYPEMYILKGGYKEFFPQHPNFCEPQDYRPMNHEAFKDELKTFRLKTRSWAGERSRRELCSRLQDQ
Description: Inhibition of recombinant Cdc25B (unknown origin) using OMFP as substrate measured every 30 sec for 10 mins by fluorometric assay

PBMC [11] = assay: Cytotoxicity against human PBMC cells assessed as reduction in cell viability at <50 uM incubated for 24 hrs by CellTiter-Glo luminescent cell viability assay; format: cell-based
MONO-MAC-6 [12] = assay: Cytotoxicity against human MONO-MAC-6 cells assessed as reduction in cell viability at <50 uM incubated for 24 hrs by CellTiter-Glo luminescent cell viability assay; format: functional, cell-based
[13] = target: T4, Dual specificity mitogen-activated protein kinase kinase 7 (Homo sapiens) (UniProt O14733); assay: Binding affinity to MKK7 (unknown origin) expressed in HEK293 cells assessed as dissociation constant at <30 uM by kinomescan method; format: cell-based
T4 sequence (whole entry): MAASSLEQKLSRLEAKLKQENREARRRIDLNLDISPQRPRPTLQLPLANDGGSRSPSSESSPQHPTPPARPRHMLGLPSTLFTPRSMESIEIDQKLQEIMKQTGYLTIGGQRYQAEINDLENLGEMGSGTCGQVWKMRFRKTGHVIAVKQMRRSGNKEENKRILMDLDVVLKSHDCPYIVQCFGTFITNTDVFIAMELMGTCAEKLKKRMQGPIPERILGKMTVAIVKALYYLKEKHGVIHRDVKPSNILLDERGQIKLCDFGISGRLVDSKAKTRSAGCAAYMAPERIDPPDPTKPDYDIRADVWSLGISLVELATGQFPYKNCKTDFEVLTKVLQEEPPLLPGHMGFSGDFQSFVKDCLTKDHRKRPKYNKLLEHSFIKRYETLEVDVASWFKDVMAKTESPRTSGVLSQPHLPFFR

SW982 [14] = assay: Cytotoxicity against human SW982 cells assessed as reduction in cell viability at <50 uM incubated for 24 hrs by CellTiter-Glo luminescent cell viability assay; format: functional, cell-based
[15] = target: T5, M-phase inducer phosphatase 2 (Homo sapiens) (UniProt P30305); assay: Inhibition of recombinant Cdc25B (unknown origin) at <50 uM using OMFP as substrate measured every 30 sec for 10 mins by fluorometric assay
T5 sequence (whole entry): T3 sequence (P30305 whole entry)

SW982 [16] = assay: Cytotoxicity against human SW982 cells assessed as reduction in cell viability incubated for 24 hrs by CellTiter-Glo luminescent cell viability assay; format: functional, cell-based; conditions: SW982, 24 h
U-937 [17] = assay: Cytotoxicity against human U937 cells assessed as reduction in cell viability incubated for 24 hrs by CellTiter-Glo luminescent cell viability assay; format: functional, cell-based; conditions: U-937, 24 h
THP-1 [18] = assay: Cytotoxicity against human THP1 cells assessed as reduction in cell viability incubated for 24 hrs by CellTiter-Glo luminescent cell viability assay; format: functional, cell-based; conditions: THP-1, 24 h
LS174T [19] = assay: Cytotoxicity against human LS174T cells assessed as reduction in cell viability incubated for 24 hrs by CellTiter-Glo luminescent cell viability assay; format: functional, cell-based
MONO-MAC-6 [20] = assay: Cytotoxicity against human MONO-MAC-6 cells assessed as reduction in cell viability incubated for 24 hrs by CellTiter-Glo luminescent cell viability assay; format: functional, cell-based; conditions: MONO-MAC-6, 24 h
MCF7 [21] = assay: Cytotoxicity against human MCF7 cells assessed as reduction in cell viability incubated for 24 hrs by CellTiter-Glo luminescent cell viability assay; format: functional, cell-based; conditions: MCF7, 24 h
Jurkat [22] = assay: cells; conditions: Homo sapiens, 24 h
Description: Cytotoxicity against human Jurkat cells assessed as reduction in cell viability incubated for 24 hrs by CellTiter-Glo luminescent cell viability assay

HL-60 [23] = assay: Cytotoxicity against human HL60 cells assessed as reduction in cell viability incubated for 24 hrs by CellTiter-Glo luminescent cell viability assay; format: functional, cell-based; conditions: HL-60, 24 h
A549 [24] = assay: Cytotoxicity against human A549 cells assessed as reduction in cell viability incubated for 24 hrs by CellTiter-Glo luminescent cell viability assay; format: functional, cell-based; conditions: A549, 24 h
PBMC [25] = assay: Cytotoxicity against human PBMC cells assessed as reduction in cell viability incubated for 24 hrs by CellTiter-Glo luminescent cell viability assay; format: cell-based; conditions: read-out: IC50
[26] = target: T6, Dual specificity mitogen-activated protein kinase kinase 7 (Homo sapiens, UniProt O14733); assay: biochemical
T6 sequence (O14733 whole entry): T4 sequence (whole entry)
Description: Binding affinity to MKK7 (unknown origin) expressed in HEK293 cells assessed as dissociation constant by kinomescan method

[27] = target: T7, M-phase inducer phosphatase 1 (Homo sapiens) (UniProt P30304); assay: Inhibition of recombinant Cdc25A (unknown origin) at <50 uM using OMFP as substrate measured every 30 sec for 10 mins by fluorometric assay
T7 sequence (whole entry): T2 sequence (P30304 whole entry)

Neutrophil elastase = target: T8, Neutrophil elastase (Homo sapiens, UniProt P08246); assay: Inhibition of recombinant HNE (unknown origin) using N-methylsuccinyl-Ala-Ala-Pro-Val-7-amino-4-methylcoumarin, as a substrate measured every 30 sec for 10 mins by fluorometric assay
T8 sequence (P08246 whole entry): T1 sequence (whole entry)

Structure (SMILES) | inhibition [1] | IC50 [7] | IC50 [10] | Activity [13] | inhibition [15] | inhibition [13] | IC50 (SW982 [16]) | IC50 (U-937 [17]) | IC50 (THP-1 [18]) | IC50 (MONO-MAC-6 [20]) | IC50 (MCF7 [21]) | IC50 (Jurkat [22]) | IC50 (HL-60 [23]) | IC50 (PBMC [25]) | Kd [26] | also measured
CC(C)=CCC1=C(O)C(=O)c2ccccc2C1=O [LAPACHOL] | inactive | 33.2 µM | 42.7 µM | inactive | – | – | – | – | – | – | – | – | – | – | – | Activity (LS174T [2]): inactive; Activity (HL-60 [3]): inactive; Activity (Jurkat [4]): inactive; Activity (THP-1 [5]): inactive; Activity (A549 [6]): inactive; Activity (U-937 [8]): inactive; Activity (MCF7 [9]): inactive; Activity (PBMC [11]): Non-Toxic; Activity (MONO-MAC-6 [12]): inactive; Activity (SW982 [14]): inactive
O=C1C(Cl)=C(NCCCO)C(=O)c2ccccc21 | inactive | 45.7 µM | – | – | inactive | inactive | – | – | – | – | – | – | – | – | – | –
O=C(O)CNC1=C(Cl)C(=O)c2ccccc2C1=O | inactive | 36 µM | – | – | inactive | inactive | – | – | – | – | – | – | – | – | – | –
O=C(O)c1cccc(NC2=C(Cl)C(=O)c3ccccc3C2=O)c1 | inactive | 32.9 µM | 24.3 µM | – | – | – | 5.5 µM | 7.6 µM | 8.6 µM | 13.4 µM | 28.5 µM | 8.2 µM | 12.1 µM | 37.9 µM | 1.9 µM | IC50 (LS174T [19]): 11.7 µM; IC50 (A549 [24]): 26.2 µM
CC(C)(C)[C@H]1CC[C@H](CC2=C(O)C(=O)c3ccccc3C2=O)CC1 [BUPARVAQUONE] | inactive | – | 12 µM | inactive | – | – | – | – | – | – | – | – | – | – | – | inhibition [27]: inactive
O=C1C(SCCO)=C(SCCO)C(=O)c2ccccc21 | inactive | – | – | – | – | – | 7.9 µM | 3.9 µM | – | 4.2 µM | 9.4 µM | 3.7 µM | 1 µM | 7.8 µM | 1.1 µM | IC50 (LS174T [19]): 18.1 µM; IC50 (A549 [24]): 13.1 µM
COc1ccc(OC)c2c1C(=O)C=C(SCCC(=O)O)C2=O | inactive | 26 µM | 7.8 µM | inactive | – | – | – | 26.6 µM | 33.3 µM | 12.8 µM | – | 21.3 µM | 28.7 µM | – | – | Activity (LS174T [2]): inactive; Activity (A549 [6]): inactive; Activity (MCF7 [9]): inactive; Activity (PBMC [11]): Non-Toxic; Activity (SW982 [14]): inactive
COC1=C(OC)C(=O)c2ccccc2C1=O | inactive | 8.9 µM | 17.4 µM | – | – | – | 20.6 µM | 11.3 µM | 8.2 µM | 3.6 µM | 6.3 µM | – | 5.4 µM | 18.5 µM | 27 µM | IC50 (LS174T [19]): 27.9 µM; IC50 (A549 [24]): 15.6 µM
CC(SC1=CC(=O)c2ccccc2C1=O)C(=O)O (centres undefined) | – | 5.4 µM | 5.2 µM | – | – | – | 21.1 µM | 34.6 µM | – | 43.6 µM | 27.9 µM | 17.9 µM | 20.5 µM | 23.8 µM | 2.1 µM | IC50 (Neutrophil elastase): 36.1 µM
COC(=O)c1ccc(NC2=C(OC)C(=O)c3ccccc3C2=O)cc1 | inactive | – | – | – | inactive | inactive | – | – | – | – | – | – | – | – | – | inhibition [27]: inactive
O=C1C(Cl)=C(NCCCN2CCOCC2)C(=O)c2ccccc21 | inactive | – | – | – | inactive | inactive | – | – | – | – | – | – | – | – | – | inhibition [27]: inactive
O=C1C(Cl)=C(NCCO)C(=O)c2ccccc21 | inactive | 45.3 µM | – | – | inactive | inactive | – | – | – | – | – | – | – | – | – | –
COC1=C(C)C(=O)c2ccccc2C1=O | inactive | 22.3 µM | 33.1 µM | inactive | – | – | – | 35.1 µM | 47.3 µM | 18.4 µM | – | 49.2 µM | 20.4 µM | – | – | Activity (LS174T [2]): inactive; Activity (A549 [6]): inactive; Activity (PBMC [11]): Non-Toxic; Activity (SW982 [14]): inactive
